Assay results published in patent publication US20060030620A1, “Method for treating and/or preventing ischemia/reperfusion injury” (priority 2004, published 2006).

What was measured:
Format in all cases: in vivo, Spargue-Dawley rats
[1] = system: liver ischemia/reperfusion injury; test: Plasma AST/ALT during hepatic ischemia/reperfusion
Experimental: (§1) The liver was then examined by the following assays.
(§2) The collected blood samples were centrifuged at 4000 g×5 min to separate the plasma, and the levels of aspartate transaminase (AST), alanine transaminase (ALT), and alkaline phosphatase (ALP) in the bile juice were measured with an auto-analyzer (model H-747E, Hitachi Co., Tokyo). Lipid peroxide was followed as Masugi and Nagamura stated by thiobarbituric acid method using malondialdehyde (MDA) tetraethyl acetal as the standard and expressed results of MDA equivalents.
(§3) Each data was expressed as mean±SD.

[2] = system: liver ischemia/reperfusion injury; test: Bile flow during hepatic ischemia/reperfusion
Text: as §1, §3

[3] = system: liver ischemia/reperfusion injury; test: Histological investigation of the liver after hepatic I/R (H&E); conditions: 70 minutes of ischemia and 120 minutes of reperfusion; MA-treated ischemia group
Experimental: as §1
(§4) Protein contents of the collected tissues were assayed with Lowry using bovine serum albumin as the standard. The collected tissue was fixed in saline buffered with 10% formaldehyde solution, embedded in paraffin wax, sliced into 5 μm thickness of each, stained with H&E staining method, and examined with a light microscope by a pathologist independently.
Histological changes in liver after hepatic I/R were kept with the above biochemical experiments of plasma and bile juice analysis. The placebo group was shown on A (100×) and B (400×); wherein “1” is severe endothelial damage, “2” is bile duct dilation, “3,” is parenchyma edema with RBC congestion, “4,” is Cholestasis, and “5” is hepatocyte necrosis. […] The dilated bile duct might be attributed to ischemic process when the clamp was used to stop the blood flow and simultaneously obstruct the bile flow. Parenchyma edema and RBC congestion might develop from the inflammatory process during I/R process.

[4] = system: liver ischemia/reperfusion injury; test: Lipid peroxidation assay (liver MDA, thiobarbituric acid method); design: post-ischemic MDA levels in liver: unit not given here
Experimental: as §1, §2, §4, §3

[5] = system: liver ischemia/reperfusion injury; test: Bile juice ALP during hepatic ischemia/reperfusion; conditions: after 120 minutes of reperfusion, MA 100 mg/kg
Experimental: as §1, §2, §3

[6] = MA 100 mg/kg iv 10 min prior to reperfusion, 70 min ischemia, after 120-minute reperfusion, mean±SD
[7] = after 60 minutes of reperfusion, P<0.05
[8] = after 120 minutes of reperfusion, MA 100 mg/kg iv

Magnesium ascorbate
increase in AST and ALT activity versus vehicle-treated ischemia rats ([1]; 1 to 4 hours after reperfusion, MA 100 mg/kg, P<0.05): significantly suppressed
average plasma AST level [1, 6]: 2040±882 U/l
plasma ALT level [1, 6]: 4466±1745 U/l
plasma AST levels compared with the placebo group ([1]; after 30 minutes of reperfusion, P<0.05): significantly decreased
plasma AST levels compared with the placebo group [1, 7]: significantly decreased
decrease of the elevated serum ALT level [1, 8]: 69%
decrease of the elevated serum AST level [1, 8]: 78%
bile flow compared with the control group (sham) ([2]; P=0.21): significantly restored resemble to normal values
choleretic effect compared with the placebo group [2, 7]: significantly increased
secreted bile juice versus vehicle-treated ischemia group ([2]; after 120 minutes of reperfusion injury): significantly doubled
bile flow ([2]; after 120 minutes of reperfusion, MA 100 mg/kg iv, mean±SD): 1.353 ± 0.351 mL/h/kg
bile flow compared with the vehicle-treated ischemia group ([2]; from 60 minutes to 240 minutes of reperfusion, P<0.05): significantly restored
histological findings of the liver (H&E) [3]: minor lesions were observed, damaged to the vascular endothelium and cholestasis was also mild
post-ischemic MDA levels in liver ([4]; 70 min ischemia and 120 min reperfusion, MA 100 mg/kg 10 min prior to reperfusion, mean±SD, P<0.02): 1054±414
MDA concentration in liver tissue versus vehicle-treated ischemia group ([4]; MA 100 mg/kg infusion 10 minutes prior to reperfusion, after 120 minutes of reperfusion): significantly decreased
relief of the ALP in bile juice from I/R damage [5]: about 70%
bile ALP ([5]; mean±SD): 34.5±8.3 U/l
